Test results reported in paper PMC6896740, “Safety, tolerability, pharmacokinetics, and pharmacodynamics of PF-06650833, a selective interleukin-1 receptor-associated kinase 4 (IRAK4) inhibitor, in single and multiple ascending dose randomized phase 1 studies in healthy subjects” (Arthritis Research & Therapy, 2019).

Key:
CYP3A = assay: 4β-hydroxycholesterol/cholesterol ratio as endogenous marker of CYP3A; assay type: in vivo, human; settings: MAD, doses up to 750 mg BID
Text: The primary objective of study 2 was to determine the safety and tolerability of MAD of orally administered IR and MR formulations of PF-06650833 after a standard meal in healthy adult subjects. The secondary objective was to evaluate the plasma and urine PK profiles of PF-06650833 after repeat dosing. Exploratory objectives were to assess the effects of PF-06650833 on exploratory biomarkers of PD activity, including high-sensitivity C-reactive protein (hsCRP), and to evaluate cholesterol/hydroxycholesterol ratios as an endogenous marker for cytochrome P450 3A (CYP3A) induction or inhibition.
For both studies, samples of blood (and urine in study 2) were taken for evaluation of PK/PD parameters (see Additional file 1: Supplemental Methods). […] Plasma and urine samples were analyzed using validated, sensitive, and specific liquid chromatography tandem mass spectrometric methods (at Pfizer Inc., Groton, CT, USA, for study 1 and at Worldwide Pharmacokinetics, Dynamics and Metabolism, Cambridge, MA, USA, for study 2). The lower limit of quantification for PF-06650833 in plasma was 0.0500 ng/mL. The lower limit of quantification for PF-06650833 in urine was 1.00 ng/mL. Serum samples were also analyzed for hsCRP, and plasma samples were analyzed for 4β-hydroxycholesterol and cholesterol. […]
35 Plasma samples were analyzed using a validated, sensitive , and specific liquid […]

[1] = set-up: method as in PMID 28498658; settings: cited from earlier work
healthy adult subjects = assay: Study 2 (MAD) safety and tolerability: TEAEs, urine crystals; assay type: in vivo
Procedure: Study 2 (B7921002; NCT02485769) was a 14-day, phase 1, randomized, double-blind, sponsor-open, placebo-controlled, sequential group, MAD study in healthy adult subjects (Fig. 1b).
Subjects were enrolled sequentially into seven cohorts. Within each cohort, eight subjects and two subjects were randomized to receive PF-06650833 and placebo, respectively. Doses for all cohorts were administered after a standard (not high-fat) meal. Multiple dosing regimens (once daily [QD] 24 h apart, twice daily [BID] 12 h apart, three times per day [TID] 8 h apart, and four times per day [QID] 6 h apart) were used to provide required total daily doses. In the final dosing scheme, multiple oral doses of PF-06650833 IR suspension formulations at 25, 100, 250, and 750 mg BID and 1000 mg QID were administered in cohorts 1–5. PF-06650833 IR 330 mg TID (cohort 6) and an MR tablet at a dose of 300 mg QD (cohort 7) were also evaluated (see Fig. 1b for final dosing scheme).
Dose escalation (cohorts 1–5) or dose selection (cohorts 6–8) was based upon the evaluation of ≥ 7 days of safety and tolerability for all subjects and ≥ 12 h of PK data for at least six subjects receiving PF-06650833. To establish an MTD, dose escalation was to cease when the limit of tolerability was achieved.
Safety assessments included incidence and severity of treatment-emergent AEs (TEAEs) and discontinuation due to TEAEs, incidence of treatment-emergent clinical laboratory abnormalities, and proportion of subjects meeting with pre-defined criteria for potential clinical concern in vital signs and electrocardiogram (ECG) parameters.
The safety analysis set was defined as all subjects who received at least one dose of study treatment, and data were summarized descriptively. The PK concentration analysis set was defined as all enrolled, treated subjects who had at least one concentration in at least one treatment period. The PK parameter analysis set was defined as all enrolled, treated subjects who had at least one of the PK parameters of interest in at least one treatment period. The PD analysis set was defined as all enrolled subjects who received at least one dose of PF-06650833 and had at least one PD parameter. PK/PD data were summarized descriptively.
PK parameters were calculated using non-compartmental analysis of concentration-time data. For study 1 only, data from cohort 1 (period 4 [IR 30 mg] versus period 5 [IR 30 mg + food]) and cohort 3 (period 2 [MR 30 mg] versus period 3 [MR 30 mg + food]) were used to estimate the effect of food intake. Cmax and AUC were calculated for each subject and treatment, with and without food, after which a within-subject difference could be found between fed (high-fat meal) and fasted doses. Analysis of covariance was used to model these within-subject differences and to calculate 95% confidence intervals (CIs) for the differences for each dose (IR 30 mg and MR 30 mg). For study 2 only, the amounts of PF-06650833 in urine and renal clearance were listed and summarized descriptively. As part of the routine safety laboratory monitoring, the presence of any atypical crystals in urine specimens was semi-quantitatively assessed microscopically by typical histopathologic methods and scored as numbers of crystals per high power field (hpf); higher abundance (moderate or many) was defined as ≥ 15/hpf. No formal interim analyses were conducted.

[2] = IR 100 mg BID, 14 days, fed, 8 evaluable

For `CC[C@@H]1[C@H](F)C(=O)N[C@@H]1COc1nccc2cc(C(N)=O)c(OC)cc12` [PF-06650833, 1-{[(2S,3S,4S)-3-Ethyl-4-fluoro-5-oxopyrrolidin-2-yl]methoxy}-7-methoxyisoquinoline-6-carboxamide], the “CYP3A induction or inhibition based on cholesterol/hydroxycholesterol ratio” value (CYP3A) is listed as “no apparent trend for CYP3A induction or inhibition”, the Permeability [1] is listed as “high-permeability compound” and the “Infections and infestations: subjects with AE, all causalities (treatment-related)” value (from here on “Infections and infestations: subjects”) (healthy adult subjects; [2]) is listed as 1 (0). The “Upper respiratory tract infection: subjects with AE, all causalities (treatment-related)” value (healthy adult subjects; [2]) was 1 (0), the “Nasal congestion: subjects with AE, all causalities (treatment-related)” value (healthy adult subjects; IR 330 mg TID, 14 days, fed, 8 evaluable) was 1 (1) and the “Infections and infestations: subjects” value (healthy adult subjects; IR 750 mg BID, 14 days, fed, 8 evaluable) was 1 (1). For the same molecule, the “Infections and infestations: subjects” value (healthy adult subjects; MR 300 mg QD, 14 days, fed, 8 evaluable) was 1 (0), the “Serious AEs or deaths” value (healthy adult subjects; all dose groups) was “No serious AEs or deaths” and the “Severity of TEAEs” value (healthy adult subjects; in vivo) was “mild or moderate”. For the same molecule, the Maximum tolerated dose (healthy adult subjects; multiple doses up to IR 1000 mg QID, MR 300 mg QD) was “not established”.
